Values quoted from earlier work, collected in US8778914B2, “Bisphosphonate-prodrugs” (priority 2009, dated 2014).
Numbered stars: 1 amine (or outer) side, 2 acyl side, 3 side chain; on linkers, the order of the positions; unused ones are H or OH. Square brackets hold non-standard residues; d marks the D form. Side chains are listed from the residue outwards. Peptide text beside a SMILES is read from it. * marks the point of attachment. DAMPA = CN(Cc1cnc2nc(N)nc(N)c2n1)c1ccc(C(=O)*)cc1; Hexanoyl(6-maleimido) = O=C1C=CC(=O)N1CCCCCC(=O)*; γGlu = O=C(O)[C@H](CCC(=O)[*:2])N[*:1]

Columns and labels:
[1] = pH 5.0; F. Kratz et al., J. Med. Chem. 2002
plasmin = plasmin (Homo sapiens, UniProt P00747); conditions: releases (gamma-MTX); reported in A. Warnecke et al., Arch. Pharm. 2007
Cathepsin B = Cathepsin B (Homo sapiens, UniProt P07858); conditions: releases (gamma-MTX); reported in A. Warnecke et al., Arch. Pharm. 2007

Chain of plasmin (P00747 581-810 limits assumed, species assumed): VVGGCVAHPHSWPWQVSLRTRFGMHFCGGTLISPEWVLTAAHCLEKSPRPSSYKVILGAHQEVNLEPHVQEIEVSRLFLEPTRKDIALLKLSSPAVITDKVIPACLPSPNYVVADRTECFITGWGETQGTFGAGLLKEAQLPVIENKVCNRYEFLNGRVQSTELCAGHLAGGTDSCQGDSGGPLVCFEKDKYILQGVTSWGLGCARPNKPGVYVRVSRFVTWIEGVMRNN
Chain of plasmin (P00747 97-580 partner limits assumed, species assumed): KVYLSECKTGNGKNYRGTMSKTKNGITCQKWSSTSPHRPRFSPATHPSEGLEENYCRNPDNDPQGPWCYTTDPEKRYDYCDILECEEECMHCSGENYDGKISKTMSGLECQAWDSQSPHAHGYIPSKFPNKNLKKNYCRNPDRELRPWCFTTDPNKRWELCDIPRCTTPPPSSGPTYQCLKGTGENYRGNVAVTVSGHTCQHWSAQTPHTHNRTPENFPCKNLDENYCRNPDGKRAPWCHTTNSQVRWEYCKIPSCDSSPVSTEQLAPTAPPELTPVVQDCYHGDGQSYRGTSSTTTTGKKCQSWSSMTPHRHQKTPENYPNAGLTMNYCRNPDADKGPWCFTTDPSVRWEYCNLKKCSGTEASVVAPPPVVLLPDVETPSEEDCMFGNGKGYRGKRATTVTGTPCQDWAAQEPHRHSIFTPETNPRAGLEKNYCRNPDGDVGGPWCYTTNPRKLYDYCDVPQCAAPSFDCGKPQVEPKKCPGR

Row | Structure (SMILES) | acid-sensitive cleavage, release of doxorubicin [1] | cleavage by plasmin (plasmin) | cleavage by Cathepsin B (Cathepsin B)
1 | COc1cccc2c1C(=O)c1c(O)c3c(c(O)c1C2=O)C[C@@](O)(/C(CO)=N/NC(=O)CCCCCN1C(=O)C=CC1=O)C[C@@H]3O[C@H]1C[C@H](N)[C@H](O)[C@H](C)O1 [DOXO-EMCH, 6-maleimidocaproylhydazone derivative of doxorubicin] | cleavable | – | –
2 | C[C@@H](NC(=O)CCCCCN1C(=O)C=CC1=O)C(=O)N[C@@H](Cc1ccccc1)C(=O)N[C@@H](CCCCN)C(=O)N[C@@H](CCCCNC(=O)CC[C@H](NC(=O)c1ccc(N(C)Cc2cnc3nc(N)nc(N)c3n2)cc1)C(=O)O)C(=O)O [EMC-D-Ala-Phe-Lys-Lys-(gamma-MTX)-OH] ({Hexanoyl(6-maleimido)}-[dA]FKK([γGlu-DAMPA])-OH) | – | cleaved between Lys-Lys | cleaved between Lys-Lys
